“Also recorded” adds a separate entry of the source.
Legend:
[1] = tested on: Skw3 control transductant UNO H13 (Sulfamethoxazole-allergic donor); test: TCR-transductant stimulation assay, control transductant UNO H13; format: cell-based, human; conditions: 24 h, heterologous EBV-transformed B cells, no drug 5.2
Description: (§1) Skw3 cell lines (Leibniz Institute DSMZ, Brunswick, Germany, (50)) were transduced as described previously (51). […] The resulting retroviruses were used to transduce the TCR-defective Skw3 cell line, which also expresses the human CD8 coreceptor. The TCR-transduced cells outgrowing in selective medium were picked, and the expression of the correct TCR α and β was further assessed by flow cytometry, using a FACS-Canto-I device (BD-Biosciences, San Jose, CA, USA). The transduced cells with stable TCR expression were selected for assessment of reactivity and specificity, which was measured by TCR-induced CD69 expression. Skw3 cell lines expressing the cognate TCR α and β chains were cocultured with autologous EBV-transformed B-lymphoblastoid cell lines (52) at 1:2 ratio at 37° C. Tested drugs were added to the cocultures with the indicated concentrations. After 24 h, cells were stained with anti-human CD3 (Biolegend) and anti-human CD69 (Biolegend) and analysed by flow cytometry. […] Experiments were repeated at least 2 times. […] Heterologous EBV-transformed B cells were also used to stimulate control transductants.

[2] = tested on: TCRαβ Skw3 transfectant C2 (TCR of top clone of patient TEN-7); format: cell-based, human; conditions: 24 h, heterologous PBMCs from healthy donors, no drug 31.7
Description: Skw3 cell lines (Leibniz Institute DSMZ, Brunswick, Germany, (50)) were transduced as described previously (51). […] The resulting retroviruses were used to transduce the TCR-defective Skw3 cell line, which also expresses the human CD8 coreceptor. The TCR-transduced cells outgrowing in selective medium were picked, and the expression of the correct TCR α and β was further assessed by flow cytometry, using a FACS-Canto-I device (BD-Biosciences, San Jose, CA, USA). The transduced cells with stable TCR expression were selected for assessment of reactivity and specificity, which was measured by TCR-induced CD69 expression. Skw3 cell lines expressing the cognate TCR α and β chains were cocultured with autologous EBV-transformed B-lymphoblastoid cell lines (52) at 1:2 ratio at 37° C. Tested drugs were added to the cocultures with the indicated concentrations. After 24 h, cells were stained with anti-human CD3 (Biolegend) and anti-human CD69 (Biolegend) and analysed by flow cytometry. […] Experiments were repeated at least 2 times. […] Then, the productive rearranged TCRα and TCRβ chains were transduced into Skw3 cells, a TCR defective lymphoma line (28) (data not shown). […] The following day, we measured CD69 expression at the surface of Skw3 cells, as marker for TCR stimulation. […]

[3] = tested on: Skw3 control transductant 17D (Abacavir-allergic donor); test: TCR-transductant stimulation assay, control transductant 17D; format: cell-based, human; conditions: control 17D, 24 h, heterologous EBV-transformed B cells, no drug 1.4
Description: as §1

[4] = tested on: human CD45+ cells (PBMCs from a TEN patient); test: Human PBMC expansion in lamotrigine- versus vehicle-treated NSG recipient mice; format: in vivo, mouse
Description: NSG animals were adoptively transferred at day 0 with 1.10^6 millions PBMCs collected from a TEN patient, 1 year after disease recovery. Animals were then administrated with lamotrigine (the culprit drug; 0.1 mg/kg/day) or vehicle by oral gavage, every day, from day 4. Results depict the kinetic of human CD45+ cell expansion measured by flow cytometry in the blood of NSG mice throughout the protocol, or the spleen at day 29. Results are expressed as mean and individual % of humanization, calculated according to the following formula: % human CD45+ cells/% (mouse+human) CD45+ cells. Six mice per group were used in this experiment. NSG animals were adoptively transferred at day 0 with 1.10^6 millions PBMCs collected from a TEN patient (1 year after disease recovery) or from a healthy donor. Animals were then administrated with lamotrigine (the culprit drug; 0.1 mg/kg/day) or vehicle, by oral gavage every day, from day 4. Results depict the expansion of human CD45+ cells measured by flow cytometry in the spleen of NSG mice, 29 days after cell transfer. Results are expressed as mean and individual % of humanization, calculated according to the following formula: % human CD45+ cells/% (mouse+human) CD45+ cells. Six mice per group were used in this experiment. NSG animals were adoptively transferred at day 0 with 1.10^6 millions PBMCs collected from a TEN patient (1 year after disease recovery). Animals were then administrated with lamotrigine (the culprit drug; 0.1 mg/kg/day), by oral gavage every day, from day 4. Results depict the expression of CD38 (A) and Granzyme B and Granulysin (B) markers on CD4+ and CD8+ T cells as measured by flow cytometry in the spleen of NSG mice, 43 days after cell transfer. Model description: We generated a surrogate model of TEN disease in mouse, by reconstituting NSG animals with 1.10^6 millions of peripheral blood mononuclear cells (PBMCs) collected from a TEN patient, 1 year after disease recovery. The patients' T cells were then reactivated with the offending drug delivered to animals by oral gavage.

[5] = tested on: relapsed or refractory multiple myeloma; conditions: monotherapy or with dexamethasone or dexamethasone and an immunomodulatory drug; RRMM; doses up to 16 mg/kg intravenous infusion; cited from earlier work
NK cells = conditions: preclinical data; cited from earlier work
[6] = tested on: plasmablasts and NK cells; conditions: cited from earlier work
[7] = tested on: relapsed or refractory multiple myeloma; conditions: cited from earlier work

## CC(C)Cc1ccc(C(C)C(=O)O)cc1 (centres unmarked) [Ibuprofen]
[1]; Ibuprofen 20 μg/ml
  % of CD69 expression in CD3+ transfectants, Concentration 1: 4.6%
[1]; Ibuprofen 100 μg/ml
  % of CD69 expression in CD3+ transfectants, Concentration 2: 10.5%
[1]; Ibuprofen 200 μg/ml
  % of CD69 expression in CD3+ transfectants, Concentration 3: 12.4%

## COc1ccnc(C[S+]([O-])c2nc3ccc(OC(F)F)cc3[nH]2)c1OC (centres unmarked) [Pantoprazole]
[2]; Pantoprazole 10 μg/ml
  % of CD69 expression in CD3+ transfectants, Concentration 2: 40.1%
[2]; Pantoprazole 50 μg/ml
  % of CD69 expression in CD3+ transfectants, Concentration 3: 47.4%
[3]; Abacavir 1 μg/ml, Pantoprazole 12.5 μg/ml
  % of CD69 expression in CD3+ transfectants, Concentration 1: 1.8%
[3]; Abacavir 10 μg/ml, Pantoprazole 25 μg/ml
  % of CD69 expression in CD3+ transfectants, Concentration 2: 1.8%
[3]; Abacavir 20 μg/ml, Pantoprazole 50 μg/ml
  % of CD69 expression in CD3+ transfectants, Concentration 3: 1.7%

## Nc1nnc(-c2cccc(Cl)c2Cl)c(N)n1 [lamotrigine]
[4]; lamotrigine 0.1 mg/kg/day from day 4, spleen, 43 days after cell transfer (FIG. 11)
  expanded CD8+ T cells expressing CD38, Granzyme B and Granulysin markers: significant part
[4]; lamotrigine 0.1 mg/kg/day oral gavage from day 4, TEN patient PBMCs, blood and spleen, day 29 (FIG. 9)
  number of animals with a high % of humanization, culprit drug group versus vehicle group: largely superior
[4]; lamotrigine 0.1 mg/kg/day oral gavage from day 4, spleen, 29 days after cell transfer (FIG. 10)
  proliferation/expansion of TEN PBMCs versus healthy donor PBMCs in response to lamotrigine: Preferential expansion of TEN PBMCs; also recorded: superior ability of TEN cells to proliferate

## MOR202: fully human anti-CD38 antibody being developed by Morphosys (CAS Number 2197112-39-1)
[5]
  safety and efficacy: safe and effective
NK cells
  effect on NK cells: reduces NK cells

## TAK-079: CD38-binding fully human IgG 1 λ mAb being developed by Takeda
[6]; healthy populations
  tolerability in healthy populations: well tolerated
[6]; subcutaneous injection
  depletion of plasmablasts and NK cells: more durable in depleting plasmablasts and NK cells
[7]; heavily pre-treated patients with RRMM, subcutaneous injection
  objective response rate: 43%
[7]; human, in vivo, sc
  safety/tolerability in patients: safe and well-tolerated
